Assay results published in patent US11370761B2, “Voltage-dependent T-type calcium channel inhibitor” (Nippon Chemiphar Co., Ltd., priority 2017, dated 2022).
Structures can show the parent of a compound that is named as a salt.

Legend:
[1] = molecular target: T1, human Cav3.2 channel (Homo sapiens, UniProt O95180); test: Electrophysiological evaluation, automated whole-cell patch clamp of Cav3.2 channel current (Pharmacological Test 2); format: cell-based; conditions: for inhibition at 0.3 µM: read-out: Cav3.2 channel current inhibition rate in test compound of 0.3 μM (holding potential of −80 mV) (%); for inhibition at 3 µM: 3 μM test compound, holding potential −100 mV, read-out: Cav3.2 channel current inhibition rate in test compound of 3 μM (holding potential of −100 mV) (%)
T1 construct: expressed in transfected cells
Experimental: The human Cav3.2 channel expressing stable cell line prepared by the test method (1) of Example 36 was seeded in a 10-cm dish using a DMEM medium containing 10% FBS, followed by culturing 37° C. for 24 hours under a 5% CO2 condition. The cells were detached using Accutase, and suspended in ice-cooled extracellular fluid for use. A Cav3.2 channel current was measured using an automated patch clamp system (Port-a-Patch; Nanion Technologies, EPC-10; HEKA Elektronik GmbH, Patchmaster; HEKA Elektronik GmbH) and buffers shown below, by a whole-cell patch-clamp method. The measurement of the Cav3.2 channel current was performed at room temperature, a measurement condition was a holding potential of −80 mV, a depolarization potential was −20 mV, a depolarization time was 100 msec, and a depolarization frequency was 10 sec. The Cav3.2 channel current was a peak value of an inward current observed at the time of depolarization to −20 mV.
The test compound was obtained by diluting a DMSO solution 1000 times with extracellular fluid to prepare a solution having a target concentration. The test compound was applied using an external perfusion system (Nanion Technologies) until the Cav3.2 channel current was stabilized, and a maximum of five concentrations from the low concentration side were cumulatively applied. An inhibition rate of the test compound was calculated from a change rate between a current value immediately before application of the test compound and the Cav3.2 channel current after application of the test compound (in a condition of holding potential of −80 mV, a concentration of the test compound was 0.3 μM, and in a condition of holding potential of −100 mV, a concentration of the test compound was 3 μM).
Extracellular fluid: 135 mM NaCl, 4 mM KCl, 1 mM MgCl2, 5 mM CaCl2, 5 mM D-Glucose, 10 mM HEPES, pH 7.4
Electrode internal fluid: 10 mM NaCl, 10 mM HEPES, 50 mM CsCl, 60 mM Cs-Fluoride, 20 mM EGTA, pH 7.2

[2] = molecular target: T1, human Cav3.2 channel; test: Intracellular calcium concentration measurement in human Cav3.2 channel expressing stable cell line (Pharmacological Test 1); format: cell-based; conditions: HEK293 cells stably expressing human Cav3.2, Fluo-4 AM fluorescence, KCl stimulation; read-out: Cav3.2 channel inhibitory action
Source text: (1) Construction of Human Cav3.2 Channel Expressing Stable Cell Line
A sequence in which a HindIII site and a kozak sequence (GCCACC) was provided on a 5′ side of a human Cav3.2 channel open reading frame (ORF) gene and a KpnI site was provided on a 3′ side thereof was incorporated into pcDNA3.1(+) (Thermo Fisher Scientific #V790-20), and the resultant was transfected into a HEK293 cell (ATCC No. CRL-1573) according to a protocol of FuGENE (registered trademark) HD Transfection Reagent (Promega #E2311).
(2) Method of Measuring Intracellular Calcium Concentration
The human Cav3.2 channel expressing stable cell line prepared by the test method (1) was seeded in a 96-well plate using a Dulbecco's modified Eagle's medium (DMEM medium) containing 10% fetal bovine serum (FBS), followed by culturing 37° C. for 48 hours under a 5% CO2 condition. Thereafter, the medium was removed, and each well washed with an A buffer was treated with 80 μL of a fluorescent dye solution containing a liquid mixture of 22 μg of a calcium fluorescent indicator Fluo-4 AM (Dojindo Molecular Technologies, Inc., #F311), 20 μL of dimethyl sulfoxide (DMSO), 1 μL of 10% Pluronic F-127 (Thermo Fisher Scientific #P6866), and 4 mL of the A buffer. After being left to stand for 45 minutes at room temperature under a light shielding condition, the cells were washed with a B buffer. In DMSO having the same final concentration as the test compound as a negative control, and the test compound dissolved in DMSO to have a final concentration of 0.1%, each test compound concentration solution containing the B buffer was added to each well. The cells were left to stand for additional 15 minutes at room temperature under a light shielding condition, and were measured using microplate reader EnVision (PerkinElmer Co., Ltd.) by the following method. First, after measuring background fluorescence in each well, an ionophore was added, and baseline fluorescence was measured. Thereafter, B buffer containing added KCl at a concentration of 83.8 mM was added to each well, and an increase in fluorescence due to calcium influx caused by the stimulation was measured for 10 seconds. Inhibition percentage was calculated from the maximum fluorescence increase value from the baseline, and an IC50 value was calculated by plotting a logarithmic value of the test compound concentration and inhibition activity. The measurement was performed by observing fluorescence of 510 nm emitted when the cells were irradiated with excitation light of 485 nm.
A buffer: 140 mM NaCl, 5 mM KCl, 1 mM MgCl2, 0.5 mM CaCl2, 10 mM Glucose, 10 mM HEPES, pH 7.3
B buffer: potassium equilibrium potential: −92 mV

[3] = 0.3 μM test compound, holding potential −80 mV, depolarization to −20 mV

T1 sequence (O95180 whole entry): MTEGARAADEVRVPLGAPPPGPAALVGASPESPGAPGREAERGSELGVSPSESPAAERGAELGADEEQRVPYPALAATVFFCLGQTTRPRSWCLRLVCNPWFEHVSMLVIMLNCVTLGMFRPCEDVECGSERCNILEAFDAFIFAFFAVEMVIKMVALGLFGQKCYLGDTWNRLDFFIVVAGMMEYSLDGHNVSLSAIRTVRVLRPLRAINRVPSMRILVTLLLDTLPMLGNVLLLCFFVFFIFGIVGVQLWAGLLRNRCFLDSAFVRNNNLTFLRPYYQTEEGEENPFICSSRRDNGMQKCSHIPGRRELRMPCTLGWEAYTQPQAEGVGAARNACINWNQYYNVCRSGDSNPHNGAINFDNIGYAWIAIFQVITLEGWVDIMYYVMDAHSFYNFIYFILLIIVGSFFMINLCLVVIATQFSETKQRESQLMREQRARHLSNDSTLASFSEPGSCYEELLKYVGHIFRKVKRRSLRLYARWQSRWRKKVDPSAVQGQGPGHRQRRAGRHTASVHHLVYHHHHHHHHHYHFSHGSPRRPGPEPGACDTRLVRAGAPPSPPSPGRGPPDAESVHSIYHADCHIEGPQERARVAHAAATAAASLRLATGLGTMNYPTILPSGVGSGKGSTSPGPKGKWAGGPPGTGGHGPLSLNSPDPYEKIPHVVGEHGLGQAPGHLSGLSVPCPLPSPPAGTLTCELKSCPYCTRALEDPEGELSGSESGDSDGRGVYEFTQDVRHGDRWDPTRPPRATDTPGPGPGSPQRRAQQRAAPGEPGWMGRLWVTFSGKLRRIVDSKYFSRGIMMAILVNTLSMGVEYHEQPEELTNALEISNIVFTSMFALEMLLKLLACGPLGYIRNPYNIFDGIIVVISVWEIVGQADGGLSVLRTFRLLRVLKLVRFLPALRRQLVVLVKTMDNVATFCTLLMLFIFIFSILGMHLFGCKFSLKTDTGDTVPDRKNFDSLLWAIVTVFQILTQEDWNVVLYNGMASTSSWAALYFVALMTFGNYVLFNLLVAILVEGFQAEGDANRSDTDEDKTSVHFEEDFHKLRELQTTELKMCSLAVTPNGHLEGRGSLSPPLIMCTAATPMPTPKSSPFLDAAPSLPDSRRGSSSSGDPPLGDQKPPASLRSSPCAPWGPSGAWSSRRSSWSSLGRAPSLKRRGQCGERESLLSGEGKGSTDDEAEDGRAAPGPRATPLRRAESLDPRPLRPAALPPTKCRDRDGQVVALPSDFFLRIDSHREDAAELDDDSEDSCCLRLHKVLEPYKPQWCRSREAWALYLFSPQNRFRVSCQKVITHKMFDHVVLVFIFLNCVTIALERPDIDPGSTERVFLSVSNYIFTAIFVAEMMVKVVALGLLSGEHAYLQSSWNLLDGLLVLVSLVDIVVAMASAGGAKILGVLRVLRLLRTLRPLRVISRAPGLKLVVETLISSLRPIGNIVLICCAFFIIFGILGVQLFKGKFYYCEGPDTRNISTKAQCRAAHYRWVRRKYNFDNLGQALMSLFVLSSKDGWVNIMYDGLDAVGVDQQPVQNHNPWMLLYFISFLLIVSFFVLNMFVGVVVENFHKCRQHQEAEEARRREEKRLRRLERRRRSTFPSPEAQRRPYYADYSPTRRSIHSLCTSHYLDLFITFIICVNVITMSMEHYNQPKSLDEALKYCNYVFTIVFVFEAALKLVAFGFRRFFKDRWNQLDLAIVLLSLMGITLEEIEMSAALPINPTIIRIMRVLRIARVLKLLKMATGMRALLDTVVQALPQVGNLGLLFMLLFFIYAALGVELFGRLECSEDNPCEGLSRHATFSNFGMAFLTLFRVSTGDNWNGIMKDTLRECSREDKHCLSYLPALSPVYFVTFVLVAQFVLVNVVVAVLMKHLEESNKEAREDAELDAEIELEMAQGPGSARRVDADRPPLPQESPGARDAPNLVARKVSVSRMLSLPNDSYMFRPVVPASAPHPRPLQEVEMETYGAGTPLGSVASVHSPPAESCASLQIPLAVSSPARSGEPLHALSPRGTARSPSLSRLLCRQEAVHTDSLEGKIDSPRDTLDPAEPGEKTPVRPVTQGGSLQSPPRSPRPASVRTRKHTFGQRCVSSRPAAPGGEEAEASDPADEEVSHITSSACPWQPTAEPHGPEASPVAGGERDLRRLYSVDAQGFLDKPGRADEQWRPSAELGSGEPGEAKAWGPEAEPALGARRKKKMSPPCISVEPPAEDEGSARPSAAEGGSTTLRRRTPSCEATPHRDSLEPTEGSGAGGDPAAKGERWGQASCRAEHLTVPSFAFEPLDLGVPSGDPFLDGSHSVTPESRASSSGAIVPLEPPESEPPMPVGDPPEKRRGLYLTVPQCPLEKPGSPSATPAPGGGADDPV

inhibition at 0.3 µM [1, 3]	inhibition at 3 µM [1]	IC50 [2]	Cav3.2 channel current inhibition rate in test compound of 0.3 μM (holding potential of −80 mV) (%) ([1]; 0.3 μM test compound, holding potential −80 mV, depolarization to −20 mV, 0.3 µM)	SMILES
17%	14%			C[C@@H](NC(=O)C1CC1c1nc2ccccc2[nH]1)c1cnc(OCC(F)(F)F)cn1 (some centres unmarked) [RQ-00311651, reference compound]
86%		0.1 to 1 µM		CCCc1ccc(NC(=O)C(C)NC(=O)C2CC2c2nc3ccccc3[nH]2)cc1 (single isomer, unassigned) [Example 1A, Trans-2-(1H-benzo[d]imidazol-2-yl)-N-(1-oxo-1-((4-propylphenyl)amino)propan-2-yl) cyclopropane-1-carboxamide]
43%	38%	0.1 to 1 µM		CC(NC(=O)C1CC1c1nc2ccccc2[nH]1)C(=O)Nc1ccc(C(F)(F)F)cc1 (single isomer, unassigned) [Example 4A, Trans-2-(1H-benzo[d]imidazol-2-yl)-N-(1-oxo-1-((4-(trifluoromethyl)phenyl)amino)propan-2-yl) cyclopropane-1-carboxamide]
51%	41%	0.1 to 1 µM		O=C(NC1(C(=O)Nc2ccc(C(F)(F)F)cc2)CC1)[C@@H]1C[C@H]1c1nc2ccccc2[nH]1 (relative stereo) [Example 21, Trans-1-(2-(1H-benzo[d]imidazol-2-yl)cyclopropane-1-carboxamido)-N-(4-(trifluoromethyl)phenyl) cyclopropane-1-carboxamide]
68%		≤ 0.1 µM		O=C(NC1(C(=O)Nc2ccc(OC(F)(F)F)cc2)CC1)[C@H]1C[C@@H]1c1nc2ccccc2[nH]1 [Example 24, 1-((1S, 2S)-2-(1H-Benzo[d]imidazol-2-yl)cyclopropane-1-carboxamido)-N-(4-(trifluoromethoxy)phenyl) cyclopropane-1-carboxamide]
39%	32%	0.1 to 1 µM		O=C(CNC(=O)[C@@H]1C[C@H]1c1nc2ccccc2[nH]1)Nc1ccc(C(F)(F)F)cc1 (relative stereo) [Example 20, Trans-2-(1H-benzo[d]imidazol-2-yl)-N-(2-oxo-2-((4-(trifluoromethyl)phenyl)amino)ethyl) cyclopropane-1-carboxamide]
30%		0.1 to 1 µM		CC(NC(=O)C1CC1c1nc2ccccc2[nH]1)C(=O)Nc1ccc(C(C)(C)C)cc1 (single isomer, unassigned) [Example 7A, Trans-2-(1H-benzo[d]imidazol-2-yl)-N-(1-((4-(tert-butyl)phenyl)amino)-1-oxopropan-2-yl) cyclopropane-1-carboxamide]
95%		≤ 0.1 µM		O=C(NC1(C(=O)Nc2cccc(C(F)(F)F)c2)CC1)[C@H]1C[C@@H]1c1nc2ccccc2[nH]1 [Example 22, 1-((1S, 2S)-2-(1H-Benzo[d]imidazol-2-yl)cyclopropane-1-carboxamido)-N-(3-(trifluoromethyl)phenyl) cyclopropane-1-carboxamide]
		0.1 to 1 µM	23%	CC(NC(=O)C1CC1c1nc2ccccc2[nH]1)C(=O)Nc1ccc(C(F)(F)F)cc1 (single isomer, unassigned) [Example 4B, Trans-2-(1H-benzo[d]imidazol-2-yl)-N-(1-oxo-1-((4-(trifluoromethyl)phenyl)amino)propan-2-yl) cyclopropane-1-carboxamide]
		1 to 10 µM		CC(NC(=O)C1CC1c1nc2ccccc2[nH]1)C(=O)Nc1ccc(C#N)cc1 (single isomer, unassigned) [Example 6B, Trans-2-(1H-benzo[d]imidazol-2-yl)-N-(1-((4-cyanophenyl)amino)-1-oxopropan-2-yl) cyclopropane-1-carboxamide]
		0.1 to 1 µM		O=C(NC1(C(=O)Nc2cc(Cl)cc(Cl)c2)CC1)[C@H]1C[C@@H]1c1nc2ccccc2[nH]1 [Example 35, 1-((1S, 2S)-2-(1H-Benzo[d]imidazol-2-yl)cyclopropane-1-carboxamido)-N-(3,5-dichlorophenyl) cyclopropane-1-carboxamide]
		1 to 10 µM		O=C(NC1CC(=O)N(c2ccc(C(F)(F)F)nc2)C1)[C@H]1C[C@@H]1c1nc2ccccc2[nH]1 (single isomer, unassigned) [Example 33B]
		≤ 0.1 µM		CC(NC(=O)C1CC1c1nc2ccccc2[nH]1)C(=O)Nc1cccc(C(F)(F)F)c1 (single isomer, unassigned) [Example 38A, Trans-2-(1H-benzo[d]imidazol-2-yl)-N-(1-oxo-1-((3-(trifluoromethyl)phenyl)amino)propan-2-yl) cyclopropane-1-carboxamide]
		0.1 to 1 µM		CC(NC(=O)C1CC1c1nc2ccccc2[nH]1)C(=O)Nc1ccc(C(C)(C)C)cc1 (single isomer, unassigned) [Example 7B, Trans-2-(1H-benzo[d]imidazol-2-yl)-N-(1-((4-(tert-butyl)phenyl)amino)-1-oxopropan-2-yl) cyclopropane-1-carboxamide]
		1 to 10 µM		CC(NC(=O)C1CC1c1nc2ccccc2[nH]1)C(=O)NC1CCNCC1 (stereo not drawn) [Example 12, Trans-2-(1H-benzo[d]imidazol-2-yl)-N-(1-oxo-1-(piperidin-4-ylamino)propan-2-yl) cyclopropane-1-carboxamide hydrochloride]
		1 to 10 µM		CC(NC(=O)C1CC1c1nc2ccccc2[nH]1)C(=O)Nc1ccc(Cl)cc1 (single isomer, unassigned) [Example 16B, Trans-2-(1H-benzo[d]imidazol-2-yl)-N-(1-((4-chlorophenyl)amino)-1-oxopropan-2-yl) cyclopropane-1-carboxamide]
		> 10 µM		CCCc1ccc(NC(=O)C(C)NC(=O)C2CC2c2nc3ccccc3[nH]2)cc1 (single isomer, unassigned) [Example 2B, Trans-2-(1H-benzo[d]imidazol-2-yl)-N-(1-oxo-1-((4-propylphenyl)amino)propan-2-yl) cyclopropane-1-carboxamide]
		> 10 µM		CC(NC(=O)C1CC1c1nc2ccccc2[nH]1)C(=O)Nc1cnccn1 (stereo not drawn) [Example 17, Trans-2-(1H-benzo[d]imidazol-2-yl)-N-(1-oxo-1-(pyrazin-2-ylamino)propan-2-yl) cyclopropane-1-carboxamide]
		0.1 to 1 µM		CC(NC(=O)C1CC1c1nc2ccccc2[nH]1)C(=O)NCc1ccc(C(F)(F)F)cc1 (stereo not drawn) [Example 14, Trans-2-(1H-benzo[d]imidazol-2-yl)-N-(1-oxo-1-((4-(trifluoromethyl)benzyl)amino)propan-2-yl) cyclopropane-1-carboxamide]
		0.1 to 1 µM		CC(NC(=O)C1CC1c1nc2ccccc2[nH]1)C(=O)Nc1ccc(Cl)cc1 (single isomer, unassigned) [Example 16A, Trans-2-(1H-benzo[d]imidazol-2-yl)-N-(1-((4-chlorophenyl)amino)-1-oxopropan-2-yl) cyclopropane-1-carboxamide]
